Entries after “also recorded” stand apart in the source; their conditions may differ. Where a SMILES comes first, the peptide text is derived from it. Bridges are numbered along the chain shown (N, C = ends). Where no end group is shown, it is not given here.
Experiments:
[1] = Human serum was diluted 1:4 in Gibco RPMI 1640 media; details: room temperature (serum incubated at 37° C. for 15 minutes prior to time course); for fragment found: up to 6 hours
PD-1/PD-L1 complex = target: T1, PD-1/PD-L1 complex (Homo sapiens, UniProt Q15116); test: AlphaScreen (PD-1/PD-L1 AlphaLISA binding kit), PD-1/PD-L1 complex formation; details: for Residual Activity: AlphaScreen PD-1/PD-L1 complex formation; for Blocking of PD-1/PD-L1 complex formation: AlphaScreen, result in words
T1 construct: purchased PerkinElmer AL356HV
Experimental: Peptides were screened using the PerkinElmer PD-1/PD-L1 (human) AlphaLISA Binding Kit (Waltham, MA, USA, Cat. No. AL356HV) according to the manufacturer's instructions. […] Briefly, peptides were resuspended in assay buffer with 4% dimethyl sulfoxide (DMSO) to make 4× stock solutions of 400 μM. […] Lastly, the 4× mixture of anti-His Acceptor beads and streptavidin Donor beads were prepared in the dark. […] The plate was incubated in the dark for 90 minutes at room temperature and luminescence was measured using a Tecan Spark multimode plate reader (Männedorf, Switzerland). For data analysis, a control with beads alone was subtracted from each well for background correction. Data analysis was conducted using GraphPad Prism version 9 (La Jolla, CA, USA).

[2] = human serum diluted 1:4 in RPMI, ESI-MS, 0, 6, 24, 48 hours
Experimental: Angiotensin I was spiked in and used for normalization.
Human serum was diluted 1:4 in Gibco RPMI 1640 media (ThermoFisher Scientific, Waltham, MA, USA, Cat. No. 11-875-093) for a total of 1 mL and incubated at 37° C. for 15 minutes prior to time course. Next, 1 μL of the peptide stock was added to warmed serum for a final concentration of […] in the master mix. The rest of the time course was performed at room temperature. For each time point, aliquots of 100 μL were removed from the master mix and added to 200 μL of 3% trifluoroacetic acid. Samples were incubated on ice for 15 minutes before centrifugation at 16,000×g for 2.5 minutes. Supernatants were transferred to a clean tube and prepared for desalting via C18 column by adding 100 μL of sample buffer (20% acetonitrile, 2% trifluoroacetic acid) to supernatants before storage at—20° C. overnight. Samples were then processed through Pierce C18 spin columns (ThermoFisher Scientific, Cat. No. 89870) according to the manufacturer's instructions. […]
For ESI-MS analysis, serum stability samples were run on an Orbitrap Exploris 480 (ThermoFisher Scientific). […] ThermoFisher's Xcalibur 4.0 Data System was used for peptide quantification. […] The samples were batch reprocessed for quantification via peak area. Peptide abundances were normalized based on Angiotensin I abundance and quantified relative to initial abundance.

[3] = tested on: human PBMCs co-cultured with OVCAR8 cells; test: Co-culture of OVCAR8 cells and stimulated human PBMCs, 1:10 OVCAR8:PBMC ratio; format: cell-based; details: for Immunosuppressive effect (reduction in TNFα/cytokines) compared with controls rPD-L1 and MN_Null: 1:10 OVCAR8:PBMC co-culture, FIG. 10D
Experimental: For this model, PBMCs and cancer cells were both stimulated prior to co-culture to promote expression of PD-1 and PD-L1, respectively.
OVCAR8 cells, generously provided by the Gottesman Lab (National Institutes of Health, Bethesda, MD, USA), and MDA-MB-231 cells (American Type Culture Collection, Rockville, MD, USA) were cultured in Gibco RPMI 1640 media (ThermoFisher Scientific, Cat. No. 11-875-093) supplemented with 10% Gibco fetal bovine serum (ThermoFisher Scientific, Cat. No. 10437028), and 1% penicillin/streptomycin (10,000 U/mL pen, 10 mg/mL strcp) from MilliporeSigma (Burlington, MA, USA, Cat. No. P4333). Cells were cultured at 37° C. and 5% CO2. Passage number was kept below 3 for co-culture assay. Human peripheral blood mononuclear cells were purchased frozen from […] PBMCs were thawed according to manufacturer's instructions one day before co-culture and cultured in the same media and conditions as cancer cell lines.
The next day, cells were stimulated with 100 ng/mL IFNγ and two vials of human PBMCs were thawed. On Day 3, concentrations of PBMCs and OVCAR8 cells (harvested from a control well) were measured using the QuadCount Automated Cell Counter. The concentration of PBMCs required for a 1:10 OVCAR8:PBMC ratio was calculated from the OVCAR8 concentration. PBMCs were plated on a separate 24-well plate (1 mL/well) and stimulated with 5 μg/mL of anti-CD3 and 5 μg/mL of anti-CD28 for 30 minutes before drug treatment. […] After 30 minutes, media was removed from OVCAR8 wells without treatment, and replaced with 1 mL of treated PBMCs. After 24 hours, the supernatants were collected from each well, and centrifuged at 10,000×g for 5 minutes to remove any remaining cells.
Briefly, samples from co-culture experiments with excess OVCAR8 ratios were diluted 1:10 in assay buffer, and samples from co-culture experiments with excess PBMC ratios were diluted 1:5 in assay buffer. Next, 10 μL of the diluted samples were mixed with 10 μL of an IL-2 antibody-oligonucleotide conjugate mixture and added to a 96-well working plate. Samples with excess OVCAR8 ratios were allowed to incubate overnight at 4° C. Samples with excess PBMCs were allowed to incubate for 1 hour at room temperature. Next, 80 μL of qPCR reaction mixture containing master mix and DNA ligase was added to each well. The plate was centrifuged at 2,500×g for 2 minutes. Samples were then added in triplicate (20 μL/well) to a 96-well PCR plate (ThermoFisher Scientific). PCR was run according to manufacturer's instructions using the QuantStudio 7 Pro Real-Time PCR System equipped with a 96-well, 0.2 mL block from ThermoFisher Scientific.
Remaining samples from experiments with excess PBMC ratios were analyzed using TNFα (Cat. No. 430204) ELISA MAX Deluxe Sets (BioLegend, San Diego, CA, USA) according to manufacturer's instructions. Briefly, 96-well Nunc™ MaxiSorp™ ELISA Plates (BioLegend, Cat. No. 423501) were coated with capture antibodies for TNFα and incubated overnight at 4° C. The next day, the plate was washed 4× with 1×PBS+0.05% Tween-20 (PBS-T). To block non-specific binding, 200 μL of assay dilutant buffer was added to each well and the plate was incubated at room temperature for 1 hour on a shaker. The plate was washed as before, and 100 μL of the samples or standards were added to each well in triplicate and incubated at room temperature for 2 hours on a shaker. The plate was washed 4× and 100 μL of detection antibody for TNFα was added to each well, and the plate was incubated at room temperature for 1 hour on a shaker. The plate was washed 4× and 100 μL of Avidin-HRP was added to each well, and the plate was incubated at room temperature for 30 minutes on a shaker.

[4] = target: T2, biotinylated PD-1 of the PerkinElmer PD-1/PD-L1 (human) AlphaLISA Binding Kit (human, UniProt Q15116 25-167, limits assumed, biotinylated (site not stated)); test: AlphaScreen (PerkinElmer PD-1/PD-L1 human AlphaLISA binding kit): peptide titrated against biotinylated PD-1 and His-tagged PD-L1; readout percent PD-1/PD-L1 binding
T2 construct: Bought kit reagent
Experimental: (§1) Briefly, peptides were resuspended in assay buffer with 4% dimethyl sulfoxide (DMSO) to make 4× stock solutions of 400 μM. […] Lastly, the 4× mixture of anti-His Acceptor beads and streptavidin Donor beads were prepared in the dark. Peptides were then added in duplicates of 10 μL to a white 96-well ½-AreaPlate (PerkinElmer, Cat. No. 6005560) at 7 different concentrations from 1 nM to 100 μM. […] The plate was incubated in the dark for 90 minutes at room temperature and luminescence was measured using a Tecan Spark multimode plate reader (Männedorf, Switzerland). For data analysis, a control with beads alone was subtracted from each well for background correction. Data analysis was conducted using GraphPad Prism version 9 (La Jolla, CA, USA).

[5] = target: T2, biotinylated PD-1 of the PerkinElmer …; test: AlphaScreen (PerkinElmer PD-1/PD-L1 human AlphaLISA binding kit): peptide titrated against biotinylated PD-1 and His-tagged PD-L1; readout percent activity (PD-1/PD-L1 complex formation)
Experimental: as §1

T1 sequence (Q15116 25-170 limits assumed, one chain of several): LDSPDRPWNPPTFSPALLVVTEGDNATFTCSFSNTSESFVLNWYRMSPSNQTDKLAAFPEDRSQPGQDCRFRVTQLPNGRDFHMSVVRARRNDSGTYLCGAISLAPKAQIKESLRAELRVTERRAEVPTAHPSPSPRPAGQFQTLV
T2 sequence (Q15116 25-167 limits assumed): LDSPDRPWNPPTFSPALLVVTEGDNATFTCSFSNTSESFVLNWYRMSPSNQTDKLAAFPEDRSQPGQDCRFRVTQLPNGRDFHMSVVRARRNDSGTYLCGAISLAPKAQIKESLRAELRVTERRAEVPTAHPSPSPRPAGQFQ

NH3-CRAMISYGGADYK-(N-Me-Arg)-IC—COOH
fragment found [1]: oxidized MN1.4
not cleaved ([1]; up to 48 hours): not significantly degraded at 48 hours

CC[C@H](C)[C@@H]1NC(=O)[C@H](CCSC)NC(=O)[C@H](C)NC(=O)[C@H](CCCNC(=N)N)NC(=O)[C@H](Cc2ccc(O)cc2)NC(=O)[C@@H](N)CSSC[C@@H](C(=O)O)NC(=O)[C@H](C(C)C)NC(=O)[C@H]([C@@H](C)O)NC(=O)[C@H]([C@@H](C)CC)NC(=O)[C@H](CCCNC(=N)N)NC(=O)[C@H](CCCCN)NC(=O)[C@H](Cc2ccc(O)cc2)NC(=O)[C@H](CC(=O)O)NC(=O)[C@H](C)NC(=O)CNC(=O)CNC(=O)[C@H](Cc2ccc(O)cc2)NC(=O)[C@H](CO)NC1=O [SEQ ID NO. 4] (H-CYRAMISYGGADYKRITVC-OH; disulfide 1-19)
IC50 (PD-1/PD-L1 complex): < 10 µM
Degradation in serum [2]: present at very low levels after 48 hours

CRALIAYKGADYKRIC (disulfide 1-16) [SEQ ID NO. 8]
Residual Activity (PD-1/PD-L1 complex): 62.87%

YRCMISYGGADEKRITV [SEQ ID NO. 14]
Immunosuppressive effect (reduction in TNFα/cytokines) compared with controls rPD-L1 and MN_Null ([3]; listed as MN-Null): did not show a significant reduction
Immunosuppressive effect (reduction in TNFα/cytokines) compared with controls rPD-L1 and MN_Null ([3]; listed as MN_Null): less immunosuppressive activity as compared to MN1.4; also recorded: little immunosuppressive effect

CRAMISYKGADYKRIC (disulfide 1-16) [SEQ ID NO. 7]
Residual Activity (PD-1/PD-L1 complex): 45.77%

CRAXISYGGADYKXIC (norleucine at position 4; SITE 4 Nle; DISULFID 1..16 Intra chain disulphide formation; SITE 14 N-methyl arginine) [SEQ ID NO. 6]
Residual Activity (PD-1/PD-L1 complex): 82.74%
Blocking of PD-1/PD-L1 complex formation (PD-1/PD-L1 complex): lost activity
Blocking of PD-1/PD-L1 complex formation (PD-1/PD-L1 complex; listed as MN1.5): abolished the ability of MN1.1 to block PD-1/PD-L1 complex formation

YRCMISYGGADYKRITV
fragment found [1]: cysteinylated peptide, major, 15 minutes; also recorded: oxidized MN 1.1, minor, time 0

Pembrolizumab [reference compound]
TNFα levels ([3]; 1:10 OVCAR8:PBMC, 24 hours, ELISA, vs untreated co-culture control, FIG. 10C): did not have this effect
IL-2 levels ([3]; 1:10 OVCAR8:PBMC, 24 hours, vs untreated co-culture control, FIG. 10B): did not have this effect

YRCMISNGGADYKRITV (Ac-YRCMISNGGADYKRITV-NH2) [SEQ ID NO. 3]
Blocking of PD-1/PD-L1 complex formation (PD-1/PD-L1 complex): mutation of Y7 is tolerated

B1: MN 2.1 (peptide)
peptide: Ac-YRCMISNGGADYKRITV-NH2
modifications: not fully specified
notes: the text speaks of Y7Q for the computation
IC50 [4]: 17.4 µM

CRALIAYKGADYKRIC (disulfide 1-16) [MN4.2]
IC50 (read off the curve) [5]: ~10 µM

CRAMISYKGADYKRIC (disulfide 1-16) [MN 3.2]
IC50 (read off the curve) [5]: ~10 µM
